Measurements from patent US20240374739A1, “BILE ACID CONJUGATE” (Curtin University, priority 2021, published 2024).
“Also recorded” adds a separate entry of the source.

Assays:
OC-1 cells = assay: Cobalt chloride hypoxia assay; type: cell-based; settings: cells pre-treated with CoCl2 at 100 μM for 24 hours, microscopic examination
Description: This assay is used to determine whether an intervention can reverse hypoxic-induced cell death brought about by cobalt chloride. For this assay, cells are pre-treated with CoCl2 at 100 μM for 24 hours, followed by microscopic examination of cell morphology and viability.

diabetic db/db mice [1] = assay: Oxidative stress and neuroinflammation (8dOHG, GFAP, Iba-1 expression) in diabetic db/db mice; type: in vivo; settings: for expression of 8dOHG in HPF: db/db mice (FIG. 28A); for expression of 8dOHG in CTX: db/db mice (FIG. 28B); for expression of GFAP in HPF: db/db mice (FIG. 28C); for expression of GFAP in CTX: db/db mice (FIG. 28D); for expression of Iba-1 in HPF: db/db mice (FIG. 28E); for expression of Iba-1 in CTX: db/db mice (FIG. 28F)
Excerpt: (§1) In this study, 4-5 week old diabetic db/db mice were put onto a diet containing probucol 0.1% (w/w) or HA-1 0.2% (w/w) for either 10 or 24 weeks, till the age of 14 or 28 weeks, respectively. Passive avoidance test was used to assess short-term memory. Subsequently, the mice were sacrificed to obtain plasma and brain tissue samples for further analyses.
GFAP is a marker of astrocyte activation, which may confer anti-inflammatory effect.
Iba-1 expression indicates microglial activation, which is a surrogate marker of neuroinflammation.

[2] = system: rat model of repeated sub-concussion; assay: Rotarod test, rat model of repeated sub-concussion (Experimental Example 6); type: in vivo, Female PVG rats; settings: rats, 12-week repeated sub-concussion; probucol 0.1% w/w, HA-1 0.2% w/w in diet (FIG. 20A)
Excerpt: (§2) Female PVG rats aged 5-7 weeks were used. Under complete anaesthesia with isoflurane, a 25 g weight was dropped onto lambda of the skull from a 1 m height. This was repeated consecutively for 10 times per procedure. The procedure was repeated 3 times per week (i.e., Monday, Wednesday, Friday) for the duration of 12 weeks. Sham group rats received the same procedure without the weight drops. The probucol treatment group received probucol which was supplemented into the diet at 0.1% w/w. The HA-1 treatment group received HA-1 also in the diet at 0.2% w/w for the entire duration of the study.
After the completion of 12-week sub-concussion procedures, neuromotor function was tested with established rotarod and beamwalk tests. On beamwalk, the higher the slips show, the more impairment. On rotarod, the lower the latency indicates the more impairment.

diabetic db/db mice [3] = assay: Small intestinal apoB and Aβ in diabetic db/db mice; type: in vivo
Excerpt: as §1

diabetic db/db mice [4] = assay: Passive Avoidance Test in diabetic db/db mice (Experimental Example 5); type: in vivo; settings: administered from 5 weeks of age, tested at 14 weeks
Description: (§3) Cognitive function in diabetic db/db mice was tested with Passive Avoidance and Novel Object Recognition tests. For both tests, the higher the value, the better the memory.
(§4) The mice were administered with either probucol, HA-1 or apoCIII antisense from 5 weeks of age, and cognitive performance was tested at 14 weeks of age.

[5] = system: Neurodegenerated cells (Alzheimer's disease model); assay: Glutathione peroxidase / GSH activity, Alzheimer's disease model; type: cell-based, human; settings: AD model; vs neurodegeneration
Description: (§5) Perinatal tissue derived human stem cell model for Alzheimer's disease (AD) was prepared using proprietary protocols to test the effect of new drug entities. Drug treatment was for 24 h in all the assays.
Alzheimer's disease-related increase in oxidative stress is associated with decrease in the levels of brain antioxidant glutathione (GSH).
(Statistical analysis: results are expressed in mean±SD. One-way ANOVA followed by Dunnett's post hoc test was performed to compare all columns vs neurodegeneration (p<0.05; *p<0.05, **p<0.001, ***p<0.0001, ns=non-significant, n=3).)

diabetic db/db mice [6] = assay: Plasma amyloid-β (Aβ40, Aβ42, oligomers, Aβ42/40 ratio) in diabetic db/db mice; type: in vivo
Excerpt: In this study, 4-5 week old diabetic db/db mice were put onto a diet containing probucol 0.1% (w/w) or HA-1 0.2% (w/w) for either 10 or 24 weeks, till the age of 14 or 28 weeks, respectively. Passive avoidance test was used to assess short-term memory. Subsequently, the mice were sacrificed to obtain plasma and brain tissue samples for further analyses. […]

diabetic db/db mice [7] = assay: Novel Object Recognition Test in diabetic db/db mice (Experimental Example 5); type: in vivo; settings: at 14 weeks of age
Description: as §3, §4

[8] = system: rat model of repeated sub-concussion; assay: Neuronal oxidative stress (8dOHG expression), rat model of repeated sub-concussion; type: in vivo, Female PVG rats; settings: rats, 12-week repeated sub-concussion
Excerpt: as §2
The rats were then sacrificed to obtain brain tissue for further analyses.

[9] = system: Rats subjected to sub-concussion (SC); assay: Beam walk test, brain injury (sub-concussion) study (Experimental Example 3); type: in vivo
Excerpt: Repeated sub-concussive head impacts are reported to impair psychomotor function. Rats were subjected to sham procedure, sub-concussion (SC) with control diet (AlN93M), SC with probucol, SC with aged garlic extract (AGE), or SC with HA-1 for 12 weeks.
Both rotarod and beam walk tests assess neuromotor function. On beam walk, the higher the slips show the more impairment. On rotarod, the lower the latency indicates the more impairment.

[10] = system: Neurodegenerated cells (Alzheimer's disease model); assay: Mitochondrial membrane potential by TMRE assay, Alzheimer's disease model; type: cell-based, human; settings: AD model; probucol 20 μM, SPQ 10 μM, HA-1 10 μM, rivastigmine 2 μM, 24 hours
Description: as §5
Aβ plaques are sources of toxicity that lead to severe structural and functional abnormalities in mitochondria in Alzheimer's disease. For assessing the changes in the electrophysiology and functional changes in the mitochondrial membrane potential, we used TMRE (tetramethylrhodamine ethyl ester) for quantifying changes in mitochondrial membrane potential in live cells by fluorimetry.

[11] = system: Amniotic membrane mesenchymal stem cells (AM-MSCs); assay: Cytotoxicity study by MTT cell viability assay; type: cell-based, human; settings: 10-30 μM, 24 hours
Description: Amniotic membrane mesenchymal stem cells (AM-MSCs) were incubated with different concentrations (10, 15, 20, 25 and 30 uM, and DMSO control) of (A) probucol, (B) SPQ, (C) HA-1, and (D) DMSO for 24 hours. D1=DMSO control for 10 μM, D2=DMSO control for 20 μM (p<0.05; *p<0.05, **p<0.001, ***p<0.0001, ns=non-significant, n=3).
Amniotic membrane mesenchymal stem cells (AM-MSCs) were incubated with different concentrations (10, 15, 20, 25 and 30 uM, and DMSO control) of (A) probucol, (B) SPQ, (C) HA-1 and, (D) DMSO for 24 hours. D1=DMSO control for 10 μM, D2=DMSO control for 20 μM (p<0.05; *p<0.05, **p<0.001, ***p<0.0001, ns=non-significant, n=3).

[12] = sub-concussion, 1, 2 and 3 cm beam, at 12 weeks
[13] = sub-concussion, 2 cm beam, after 6 weeks
[14] = Experimental Example 1 (FIG. 1)
[15] = Experimental Example 2 (FIG. 8)

For `CC(=O)O[C@@H]1CC[C@@]2(C)[C@H](CC[C@@H]3[C@@H]2CC[C@]2(C)[C@@H]([C@H](C)CCC(=O)Oc4c(C(C)(C)C)cc(SC(C)(C)Sc5cc(C(C)(C)C)c(O)c(C(C)(C)C)c5)cc4C(C)(C)C)CC[C@@H]32)C1` [HA-1, 2,6-di-tert-butyl-4-((2-((3,5-di-tert-butyl-4-hydroxyphenyl)thio)propan-2-yl)thio)phenyl (4R)-4-[(3R,5R,8R,9S,10S,13R,14S,17R)-3-acetoxy-10,13-dimethyl-2,3,4,5,6,7,8,9,11,12,14,15,16,17-tetradecahydro-1H-cyclopenta[a]phenanthren-17-yl]pentanoate], the cell morphology (OC-1 cells) was “optimal morphology”, the “expression of 8dOHG in HPF” value (diabetic db/db mice [1]) was “better efficacy particularly in HPF” and the “expression of 8dOHG in CTX” value (diabetic db/db mice [1]) was “attenuated”. For the same molecule, the “expression of GFAP in HPF” value (diabetic db/db mice [1]) was “significant recovery”, the “expression of GFAP in CTX” value (diabetic db/db mice [1]) was “ameliorated similarly” and the “expression of Iba-1 in HPF” value (diabetic db/db mice [1]) was “substantially reduced the expression of Iba-1”. The “expression of Iba-1 in CTX” value (diabetic db/db mice [1]) was “substantially reduced the expression of Iba-1”, the rotarod latency [2] was “significant increase in the latency” and the “small intestinal Aβ” value (diabetic db/db mice [3]; 14 weeks of age) was “comparable or superior effects”. For the same molecule, the “small intestinal apoB” value (diabetic db/db mice [3]; 14 weeks of age) was “significantly attenuated”, the “small intestinal Aβ” value (diabetic db/db mice [3]; 28 weeks of age) was “comparable or superior effects” and the “small intestinal apoB” value (diabetic db/db mice [3]; 28 weeks of age) was “no longer seen”. The “Passive Avoidance Test latency (short-term memory)” value (diabetic db/db mice [4]) was “completely restore the memory; also recorded: equivalent latency to Neg control and probucol group mice”, the “glutathione (GSH) activity” value [5] was “increase in the anti-oxidant GSH activity” and the Aβ42/40 ratio (diabetic db/db mice [6]; 14 weeks of age) was “remarkably reduced”. The “plasma Aβ40” value (diabetic db/db mice [6]; 14 weeks of age) was “did not change plasma Aβ40 levels”, the “plasma Aβ42” value (diabetic db/db mice [6]; 14 weeks of age) was “remarkably attenuated” and the “plasma concentrations of Aβ oligomers” value (diabetic db/db mice [6]; 14 weeks of age) was “significantly reduced”. For the same molecule, the Aβ42/40 ratio (diabetic db/db mice [6]; 28 weeks of age) was “remarkably reduced”, the “plasma Aβ40” value (diabetic db/db mice [6]; 28 weeks of age) was “increased plasma Aβ40 levels” and the “plasma Aβ42” value (diabetic db/db mice [6]; 28 weeks of age) was “significantly reduced”. The “plasma concentrations of Aβ oligomers” value (diabetic db/db mice [6]; 28 weeks of age) was “significantly reduced”, the “Novel Object Recognition Test preference index” value (diabetic db/db mice [7]) was “no significant effects” and the “expression of 8dOHG (oxidative stress) in HPF and CTX” value [8] was “substantially attenuated the cerebral oxidative stress levels”. For the same molecule, the “number of slips in beam walk test” value [9, 12] was “did not show significant preventative effects”, the “number of slips in beam walk test” value [9, 13] was “significant reduction in slips” and the “mitochondrial membrane potential (TMRE)” value [10] was “maintain the mitochondrial membrane potential”.

`CC1(C)SC2(C=C(C(C)(C)C)C(=O)C(C(C)(C)C)=C2)C2(C=C(C(C)(C)C)C(=O)C(C(C)(C)C)=C2)S1` [SPQ, 2,4,9,11-tetrakis(1,1-dimethylethyl)-14,14-dimethyl-13,15-dithiadispiro[5.0.5.3]pentadeca-1,4,8,11-tetraene-3,10-dione] was tested, and the “glutathione (GSH) activity” value [5] was “increase in the anti-oxidant GSH activity”, the “cytotoxicity by MTT cell viability assay” value [11, 14] was “not toxic to the cells” and the “cytotoxicity by MTT cell viability assay” value [11, 15] was “not toxic to the cells”. The “mitochondrial membrane potential (TMRE)” value [10] was “maintain the mitochondrial membrane potential”.

With `CC(C)(Sc1cc(C(C)(C)C)c(O)c(C(C)(C)C)c1)Sc1cc(C(C)(C)C)c(O)c(C(C)(C)C)c1` [probucol, 2,6-ditert-butyl-4-[2-(3,5-ditert-butyl-4-hydroxyphenyl)sulfanylpropan-2-ylsulfanyl]phenol] the cell morphology (OC-1 cells) was “normal morphology”, the “expression of 8dOHG in HPF” value (diabetic db/db mice [1]) was “attenuated” and the “expression of 8dOHG in CTX” value (diabetic db/db mice [1]) was “attenuated”. The “expression of GFAP in HPF” value (diabetic db/db mice [1]) was “no benefits”, the “expression of GFAP in CTX” value (diabetic db/db mice [1]) was “ameliorated similarly” and the “expression of Iba-1 in HPF” value (diabetic db/db mice [1]) was “no beneficial effects”. For the same molecule, the “expression of Iba-1 in CTX” value (diabetic db/db mice [1]) was “no beneficial effects”, the rotarod latency [2] was “did not show any changes” and the “small intestinal Aβ” value (diabetic db/db mice [3]; 14 weeks of age) was “significantly attenuated”. The “small intestinal apoB” value (diabetic db/db mice [3]; 14 weeks of age) was “no significant reduction”, the “small intestinal Aβ” value (diabetic db/db mice [3]; 28 weeks of age) was “significantly attenuated” and the “Passive Avoidance Test latency (short-term memory)” value (diabetic db/db mice [4]) was “completely prevented the memory loss”. The “glutathione (GSH) activity” value [5] was “increase in the anti-oxidant GSH activity”, the “plasma Aβ40” value (diabetic db/db mice [6]; 14 weeks of age) was “did not change plasma Aβ40 levels” and the “plasma Aβ42” value (diabetic db/db mice [6]; 14 weeks of age) was “no beneficial effect”. For the same molecule, the “plasma concentrations of Aβ oligomers” value (diabetic db/db mice [6]; 14 weeks of age) was “not observed”, the “plasma concentrations of Aβ oligomers” value (diabetic db/db mice [6]; 28 weeks of age) was “not observed” and the “Novel Object Recognition Test preference index” value (diabetic db/db mice [7]) was “no significant effects”. For the same molecule, the “expression of 8dOHG (oxidative stress) in HPF and CTX” value [8] was “some increase of 8dOHG particularly in the CTX”, the “number of slips in beam walk test” value [9, 12] was “did not show significant preventative effects” and the “number of slips in beam walk test” value [9, 13] was “did not indicate any beneficial effects”. The “cytotoxicity by MTT cell viability assay” value [11, 14] was “not toxic to the cells”, the “cytotoxicity by MTT cell viability assay” value [11, 15] was “not toxic to the cells” and the “mitochondrial membrane potential (TMRE)” value [10] was “maintain the mitochondrial membrane potential”.
